Test results taken from patent US11608332B2, “FGFR4 inhibitor and preparation method and use thereof” (Jiangsu Hansoh Pharmaceutical Group Co., Ltd., priority 2016, dated 2023).
pIC50: −log10 of the molar value.

How the values were obtained:
FGFR1 kinase = FGFR1 kinase (Homo sapiens (Human), UniProt P11362); assay: Enzymologic experiment of FGFR1 (TR-FRET); format: biochemical; details: TR-FRET kinase activity
Protocol: 2. Enzymologic Experiment of FGFR1
In this experiment, the inhibitory effect of the compounds on FGFR1 kinase activity was tested by a fluorescence resonance energy transfer (TR-FRET) method, and the half maximal inhibitory concentration (IC50) of the compounds on the FGFR1 kinase activity was determined.
1) 1˜5 μL of FGFR1 enzymatic solution was added to a 384-well plate, and the final concentration of the enzyme was 0.1˜5 nM.
2) 1˜5 μL of diluted solution in gradient of the compound was added.
3) 1˜5 μL of a substrate mixture containing substrate polypeptide with a final concentration of 5˜50 nM and ATP with a final concentration of 10˜200 μM was added.
4) The mixture was incubated for 0.5-3 hours at room temperature.
5) 10 μL of EDTA and a test solution comprising labeled antibody were added, and the plate was incubated for 1 hour at room temperature.
6) The fluorescence signal values of each plate were determined by a microplate reader at 665 nm.
7) The inhibition rates were calculated according to the fluorescence signal values.
The IC50 of the compound was obtained by curve fitting according to the inhibition rates at different concentrations, and the enzymatic activity of the specific example compounds is shown in Table 1.

HuH-7 cells = assay: Inhibition of HuH-7 cell proliferation (CellTiter-Glo); format: cell-based; details: Homo sapiens, 72 hours
Protocol: 4. Experiment on the Inhibition of HuH-7 Cell Proliferation
In this experiment, the inhibitory effect of the compounds on HuH-7 cell proliferation was tested by a CellTiter-Glo method, and the half maximal inhibitory concentration (IC50) of the compounds on the activity of cell proliferation was determined.
1) A 96-well cell culture plate was seeded with 50˜100 μL of HuH-7 cell suspension at a density of 1-5×10^4 cells/ml. The culture plate was incubated in an incubator for 16˜24 hours (37° C., 5% CO2).
(§1) 2) Different concentrations of the test compound in a gradient dilution were added to the cells in the culture plate. The culture plate was incubated in an incubator for 72 hours (37° C., 5% CO2).
(§2) 3) 50˜100 μL of CellTiter-Glo reagent were added to each well. Then, the culture plate was shaken or left to stand for 5˜30 minutes at room temperature.
(§3) 4) The chemiluminescence signal values of each plate were determined by a microplate reader.
(§4) 5) The inhibition rates were calculated according to the chemiluminescence signal values.
6) The IC50 of the compound was obtained by curve fitting according to the inhibition rates at different concentrations, and the cell activity of the specific Example compounds is shown in Table 2.

SK-HEP-1 cells = assay: Inhibition of SK-HEP-1 cell proliferation (CellTiter-Glo); format: cell-based; details: Homo sapiens, SK-HEP1, 72 hours
Protocol: 5. Experiment on the Inhibition of SK-HEP-1 Cell Proliferation
In this experiment, the inhibitory effect of the compounds on SK-HEP-1 cell proliferation was tested by a CellTiter-Glo method, and the half maximal inhibitory concentration (IC50) of the compounds on the activity of cell proliferation was determined.
1) A 96-well cell culture plate was seeded with 50˜100 μL of SK-HEP-1 cell suspension at a density of 1-5×10^4 cells/ml. The culture plate was incubated in an incubator for 16˜24 hours (37° C., 5% CO2).
as §1, §2, §3, §4
The IC50 of the compound was obtained by curve fitting according to the inhibition rates at different concentrations, and the cell activity of the specific Example compounds is shown in Table 2.

Hep 3B cells = assay: Inhibition of Hep 3B cell proliferation (CellTiter-Glo); format: cell-based; details: Homo sapiens, Hep3B, 72 hours
Protocol: 3. Experiment on the Inhibition of Hep 3B Cell Proliferation
In this experiment, the inhibitory effect of the compounds on Hep 3B cell proliferation was tested by a CellTiter-Glo method, and the half maximal inhibitory concentration (IC50) of the compounds on the activity of cell proliferation was determined.
1) A 96-well cell culture plate was seeded with 50˜100 μL of Hep 3B cell suspension at a density of 1-5×10^4 cells/ml. The culture plate was incubated in an incubator for 16-24 hours (37° C., 5% CO2).
as §1
3) 50-100 μL of CellTiter-Glo reagent were added to each well. Then, the culture plate was shaken or left to stand for 5˜30 minutes at room temperature.
as §3, §4
6) The IC50 of the compound was obtained by curve fitting according to the inhibition rates at different concentrations, and the cell activity of the specific example compounds is shown in Table 2.

[1] = Pharmacokinetic (PK) analysis in rats; format: in vivo, Sprague Dawley (SD) rats; details: SD rats, single intragastric administration, 5 mg/kg, plasma; for AUC(0-t): read-out: Area Under Curve AUC0-t; for AUC(0-inf): read-out: Area Under Curve AUC0-∞; for half-life: read-out: Half-Time t1/2 (converted); for Cmax: read-out: Plasma Concentration Cmax
Protocol: 6. Pharmacokinetic (PK) Analysis in Rats
Mode of administration: a single intragastric administration.
Formulation: 0.5% CMC and 1% Tween 80, ultrasonic dissolution.
Sampling points: 0.5, 1, 2, 4, 6, 8 and 24 hours after administration.
1. 1.0 ml of intravenous blood was collected and placed in a K2EDTA test tube.
The blood was centrifuged at room temperature at the speed of 1000˜3000×g for 5˜20 minutes to isolate the plasma, which was then stored at −80° C. 2. 160 μL of acetonitrile were added to 40 μL of plasma sample for precipitation, and then the mixture was centrifuged at the speed of 500˜2000×g for 5˜20 minutes. 3. 100 μL of treated solution were taken, and the concentration of the test compound was analyzed by LC/MS/MS. The LC/MS/MS analytical instrument was AB Sciex API 4000.
Liquid Chromatography Analysis:
Condition of Liquid chromatography: Shimadzu LC-20AD pump
Chromatographic column: phenomenex Gemiu 5 um C18 50×4.6 mm
Mobile phase: Solution A is 0.1% aqueous formic acid solution, and solution B is acetonitrile
Elution time: 0-3.5 minutes, the eluent was as follows:
Mass spectrometry analysis:
Mass spectrometer setup conditions: positive ion electrospray ionization (ESI) mode.

Chain of FGFR1 kinase (P11362 22-822): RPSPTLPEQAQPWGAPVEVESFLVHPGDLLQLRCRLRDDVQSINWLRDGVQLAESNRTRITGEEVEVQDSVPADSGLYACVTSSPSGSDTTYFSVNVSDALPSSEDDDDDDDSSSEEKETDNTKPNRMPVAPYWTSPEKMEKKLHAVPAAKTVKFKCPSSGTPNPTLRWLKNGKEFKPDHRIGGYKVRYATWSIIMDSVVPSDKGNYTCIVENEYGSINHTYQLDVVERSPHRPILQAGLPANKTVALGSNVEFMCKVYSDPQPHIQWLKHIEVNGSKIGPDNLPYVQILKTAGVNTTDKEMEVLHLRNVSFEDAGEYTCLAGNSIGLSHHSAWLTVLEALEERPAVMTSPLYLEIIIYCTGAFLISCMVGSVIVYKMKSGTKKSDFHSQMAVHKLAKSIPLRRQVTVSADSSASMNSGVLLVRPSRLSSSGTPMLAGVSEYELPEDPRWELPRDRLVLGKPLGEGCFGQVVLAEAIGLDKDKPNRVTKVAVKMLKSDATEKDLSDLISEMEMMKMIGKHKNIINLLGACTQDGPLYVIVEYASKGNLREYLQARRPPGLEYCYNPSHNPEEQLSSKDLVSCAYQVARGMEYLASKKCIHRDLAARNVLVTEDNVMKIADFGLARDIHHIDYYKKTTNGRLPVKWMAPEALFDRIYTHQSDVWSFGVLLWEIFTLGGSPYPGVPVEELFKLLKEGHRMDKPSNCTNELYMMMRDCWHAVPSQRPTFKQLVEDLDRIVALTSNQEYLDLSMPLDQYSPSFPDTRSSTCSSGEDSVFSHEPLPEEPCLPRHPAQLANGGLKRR

Row | SMILES | pIC50 (FGFR1 kinase) | pIC50 (HuH-7 cells) | pIC50 (SK-HEP-1 cells) | pIC50 (Hep 3B cells) | Peak Time tmax [1] | AUC(0-t) ([1]; Sprague-Dawley, rat, po) | AUC(0-inf) ([1]; Sprague-Dawley, rat, po) | half-life ([1]; Sprague-Dawley, rat, po) | Cmax ([1]; Sprague-Dawley, rat, po) | MRT ([1]; Sprague-Dawley, rat, po, read-out: Mean Residence Time MRT)
1 | COCCNc1cc(NC(=O)N2CCCc3cc(CN(C[C@@H]4CCCO4)C(C)=O)c(C=O)nc32)ncc1C#N [Example 111, (S)—N-(5-Cyano-4-((2-methoxyethyl)amino)pyridin-2-yl)-7-formyl-6-((N-((tetrahydrofuran-2-yl)methyl)acetamido)methyl)-3,4-dihydro-1,8-naphthyridin-1(2H)-carboxamide] | < 5.00 | 7.67 | < 5.00 | 8.08 | – | – | – | – | – | –
2 | COCCNc1cc(NC(=O)N2CCCc3cc(CN(C)C(=O)[C@H]4CCOC4)c(C=O)nc32)ncc1C#N [Example 6, (S)—N-(5-Cyano-4-((2-methoxyethyl)amino)pyridin-2-yl)-7-formyl-6-((N-methyltetrahydrofuran-3-carboxamido)methyl)-3,4-dihydro-1,8-naphthyridin-1(2H)-carb oxamide] | < 5.00 | 8.01 | < 5.00 | 8.57 | – | – | – | – | – | –
3 | COC[C@H](C)Nc1cc(NC(=O)N2CCCc3cc(CN4CC[C@H](OC)C4=O)c(C=O)nc32)ncc1C#N [Example 90, N-(5-Cyano-4-(((S)-1-methoxypropan-2-yl)amino)pyridin-2-yl)-7-formyl-6-(((S)-3-methoxy-2-carbonylpyrrolidin-1-yl)methyl)-3,4-dihydro-1,8-naphthyridin-1(2H)-carboxamide] | < 5.00 | – | – | – | – | – | – | – | – | –
4 | COCCNc1cc(NC(=O)N2CCCc3cc(CN(C=O)[C@H]4CCOC4)c(C=O)nc32)ncc1C#N [Example 114, (S)—N-(5-Cyano-4-((2-methoxyethyl)amino)pyridin-2-yl)-7-formyl-6-((N-(tetrahydrofuran-3-yl)formylamino)methyl)-3,4-dihydro-1,8-naphthyridin-1(2H)-carboxamide] | – | 7.57 | < 5.00 | 8.07 | – | – | – | – | – | –
5 | COC[C@H](C)Nc1cc(NC(=O)N2CCCc3cc(CN(C)C(=O)[C@H]4CCCO4)c(C=O)nc32)ncc1C#N [Example 92, N-(5-Cyano-4-(((S)-1-methoxypropan-2-yl)amino)pyridin-2-yl)-7-formyl-6-(((R)—N-methyltetrahydrofuran-2-carboxamido)methyl)-3,4-dihydro-1,8-naphthyridin-1(2H)-carboxamide] | < 5.00 | – | – | – | – | – | – | – | – | –
6 | CN(Cc1cc2c(nc1C=O)N(C(=O)Nc1cc(N[C@@H]3CCOC3)c(C#N)cn1)CCC2)C(=O)[C@H]1CCCO1 [Example 95, N-(5-Cyano-4-(((R)-tetrahydrofuran-3-yl)amino)pyridin-2-yl)-7-formyl-6-(((R)—N-methyltetrahydrofuran-2-carboxamido)methyl)-3,4-dihydro-1,8-naphthyridin-1 (2H)-carboxamide] | < 5.00 | 7.89 | < 5.00 | 8.55 | – | – | – | – | – | –
7 | COCCNc1cc(NC(=O)N2CCCc3cc(CN(C)C(=O)[C@@H]4CCOC4)c(C=O)nc32)ncc1C#N [Example 7, (R)—N-(5-Cyano-4-((2-methoxyethyl)amino)pyridin-2-yl)-7-formyl-6-((N-methyltetrahydrofuran-3-carboxamido)methyl)-3,4-dihydro-1,8-naphthyridin-1(2H)-carb oxamide] | < 5.00 | 7.97 | < 5.00 | 8.33 | – | – | – | – | – | –
8 | COCCNc1cc(NC(=O)N2CCCc3cc(CN4CCC(OC)C4=O)c(C=O)nc32)ncc1C#N (centres unmarked) [Example 44, N-(5-Cyano-4-((2-methoxyethyl)amino)pyridin-2-yl)-7-formyl-6-((3-methoxy-2-carbonylpyrrolidin-1-yl)methyl)-3,4-dihydro-1,8-naphthyridin-1(2H)-carboxamide] | – | 8.16 | < 5.00 | 8.22 | 2 h | 9690 ng·h/mL | 9820 ng·h/mL | 1 h | 3010 ng/mL | –
9 | COCCNc1cc(NC(=O)N2CCCc3cc(CN4CC[C@@H](OC)C4=O)c(C=O)nc32)ncc1C#N [Example 45, (R)—N-(5-Cyano-4-((2-methoxyethyl)amino)pyridin-2-yl)-7-formyl-6-((3-methoxy-2-carbonylpyrrolidin-1-yl)methyl)-3,4-dihydro-1,8-naphthyridin-1(2H)-carboxamide] | – | 8.08 | < 5.00 | 8.72 | 2 h | 12100 ng·h/mL | 12300 ng·h/mL | 1.1 h | 3760 ng/mL | –
10 | COCCNc1cc(NC(=O)N2CCCc3cc(CN(C=O)C[C@H]4CCCO4)c(C=O)nc32)ncc1C#N [Example 110, (R)—N-(5-Cyano-4-((2-methoxyethyl)amino)pyridin-2-yl)-7-formyl-6-((N-((tetrahydrofuran-2-yl)methyl)formylamino)methyl)-3,4-dihydro-1,8-naphthyridin-1(2H)-carboxamide] | – | 7.55 | < 5.00 | 8.08 | – | – | – | – | – | –
11 | COC[C@@H](C)Nc1cc(NC(=O)N2CCCc3cc(CN4CC[C@@H](OC)C4=O)c(C=O)nc32)ncc1C#N [Example 91, N-(5-cyano-4-(((R)-1-methoxypropan-2-yl)amino)pyridin-2-yl)-7-formyl-6-(((R)-3-methoxy-2-carbonylpyrrolidin-1-yl)methyl)-3,4-dihydro-1,8-naphthyridin-1(2H)-carboxamide] | – | 8.48 | < 5.00 | 8.82 | 0.5 h | 12900 ng·h/mL | 13000 ng·h/mL | 0.9 h | 2790 ng/mL | 2.8 h
12 | CO[C@H]1CCN(c2cc(NC(=O)N3CCCc4cc(CN5CC[C@H](OC)C5=O)c(C=O)nc43)ncc2C#N)C1 [Example 53, N-(5-Cyano-4-((S)-3-methoxypyrrolidin-1-yl)pyridin-2-yl)-7-formyl-6-(((S)-3-methoxy-2-carbonylpyrrolidin-1-yl)methyl)-3,4-dihydro-1,8-naphthyridin-1(2H)-carboxamide] | < 5.00 | – | – | – | – | – | – | – | – | –
